Reference: ChEMBL document CHEMBL5120862, “Novel non-covalent LSD1 inhibitors endowed with anticancer effects in leukemia and solid tumor cellular models” (Eur J Med Chem, 2022)
Calls of active or inactive are those of the source. The rule behind the calls is not given here.

Key:
LSD1/CoREST complex [1] = target: T1, LSD1/CoREST complex (Homo sapiens, UniProt O60341); assay: Binding affinity to human LSD1/CoREST assessed as dissociation constant by competitive fluorescence polarization assay; format: protein-complex assay
LSD1/CoREST complex [2] = target: T1, LSD1/CoREST complex; assay: Inhibition of human LSD1/CoREST using histone H3 peptide as substrate by fluorescence polarization assay; format: protein-complex assay
[3] = target: T2, Histone-lysine N-methyltransferase EHMT2 (Homo sapiens, UniProt Q96KQ7); assay: Inhibition of G9a (unknown origin) assessed as reduction in substrate methylation using histone H3 and SAM as substrate measured after 15 to 60 mins by microfluidic capillary electrophoresis analysis
T2 sequence (Q96KQ7 whole entry): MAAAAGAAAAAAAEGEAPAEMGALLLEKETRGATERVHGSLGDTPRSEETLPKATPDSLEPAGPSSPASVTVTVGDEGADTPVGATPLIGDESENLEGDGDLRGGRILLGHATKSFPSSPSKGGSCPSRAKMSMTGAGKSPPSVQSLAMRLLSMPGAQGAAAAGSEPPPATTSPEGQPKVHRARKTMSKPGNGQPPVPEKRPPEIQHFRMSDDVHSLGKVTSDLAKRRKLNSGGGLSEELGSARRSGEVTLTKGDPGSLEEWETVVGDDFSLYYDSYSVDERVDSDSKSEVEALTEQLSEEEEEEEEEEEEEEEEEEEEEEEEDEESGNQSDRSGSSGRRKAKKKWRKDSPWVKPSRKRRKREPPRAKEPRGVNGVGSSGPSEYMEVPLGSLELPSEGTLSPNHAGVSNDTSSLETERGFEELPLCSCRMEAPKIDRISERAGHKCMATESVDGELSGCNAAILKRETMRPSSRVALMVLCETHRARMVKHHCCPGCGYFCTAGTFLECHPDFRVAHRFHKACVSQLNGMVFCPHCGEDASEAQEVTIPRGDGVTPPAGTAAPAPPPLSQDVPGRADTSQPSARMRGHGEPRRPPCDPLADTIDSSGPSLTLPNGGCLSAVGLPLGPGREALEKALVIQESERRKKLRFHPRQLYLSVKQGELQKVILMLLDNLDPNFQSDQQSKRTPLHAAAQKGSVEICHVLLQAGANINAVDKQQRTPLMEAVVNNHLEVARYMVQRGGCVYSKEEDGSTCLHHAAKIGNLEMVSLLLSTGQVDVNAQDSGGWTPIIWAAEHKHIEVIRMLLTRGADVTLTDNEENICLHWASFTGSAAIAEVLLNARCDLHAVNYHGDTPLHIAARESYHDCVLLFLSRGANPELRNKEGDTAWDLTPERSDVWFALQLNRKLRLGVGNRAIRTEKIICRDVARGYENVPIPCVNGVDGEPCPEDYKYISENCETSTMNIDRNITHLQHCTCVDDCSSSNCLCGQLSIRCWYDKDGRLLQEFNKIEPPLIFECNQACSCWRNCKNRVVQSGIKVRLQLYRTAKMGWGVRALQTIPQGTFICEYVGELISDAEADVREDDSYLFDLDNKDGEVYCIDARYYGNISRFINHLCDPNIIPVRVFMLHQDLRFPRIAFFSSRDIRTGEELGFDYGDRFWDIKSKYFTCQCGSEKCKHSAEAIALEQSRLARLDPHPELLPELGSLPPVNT

THP-1 [4] = assay: Antiproliferative activity against human THP-1 cells assessed as inhibition of cell growth incubated for 24 hrs by CellTiter-Glo luminescent cell viability assay; format: functional, cell-based; conditions: THP-1, 24 h
THP-1 [5] = assay: Antiproliferative activity against human THP-1 cells assessed as inhibition of cell growth incubated for 72 hrs by CellTiter-Glo luminescent cell viability assay; format: functional, cell-based; conditions: THP-1, 72 h
THP-1 [6] = assay: Antiproliferative activity against human THP-1 cells assessed as inhibition of cell growth incubated for 144 hrs by CellTiter-Glo luminescent cell viability assay; format: functional, cell-based; conditions: THP-1, 144 h
[7] = target: Histone-lysine N-methyltransferase, H3 lysine-79 specific (Homo sapiens) (UniProt Q8TEK3); assay: Inhibition of […] (unknown origin) using [3H]SAM and HeLa oligo nucleosomes as substrates at 100 uM incubated for 1 hr relative to control
[8] = target: Histone-lysine N-methyltransferase EZH2 (Homo sapiens) (UniProt Q15910); assay: Inhibition of EZH2 (unknown origin) using [3H]SAM and chicken core histone as substrates at 100 uM incubated for 1 hr relative to control
MDA-MB-231 = assay: Antiproliferative activity against human MDA-MB-231 cells assessed as inhibition of cell growth measured after 72 hrs by MTT assay; format: functional, cell-based; conditions: MDA-MB-231, 72 h
[9] = Cytotoxicity against human AHH-1 cells assessed as residual cell viability at 1 uM measured after 72 hrs by MTT assay relative to control; format: toxicity, cell-based; conditions: read-out: Activity
MV4-11 [10] = assay: Antiproliferative activity against human MV4-11 cells assessed as inhibition of cell growth at […] incubated for 72 to 144 hrs by trypan blue staining based analysis; format: functional; conditions: dose 2.5 µM, time 72-144 hrs
[11] = target: Lysine-specific histone demethylase 1A (Homo sapiens) (UniProt O60341); assay: Inhibition of LSD1 in human MV4-11 cells assessed as increase in H3K4me2 level at 0.2 to […] incubated for 24 hrs by Western blot analysis; format: cell-based; conditions: dose 0.2-2.5 µM
[12] = target: Lysine-specific histone demethylase 1A (Homo sapiens) (UniProt O60341); assay: Inhibition of LSD1 in human MV4-11 cells assessed as increase in CD86 expression level incubated for 24 hrs by qRT-PCR analysis; format: cell-based; conditions: dose 0.2-1 µM
MV4-11 [13] = assay: Induction of cell cycle arrest in human MV4-11 cells assessed as accumulation of cells at G1 phase at 0.2 to […] incubated for 24 hrs; format: functional, cell-based; conditions: dose 0.2-2.5 µM
MV4-11 [14] = assay: Induction of apoptosis in human MV4-11 cells assessed as accumulation of cells at sub-G1 phase incubated for 24 hrs; format: functional, cell-based; conditions: dose 0.2-25 µM, DDE = dose-dependent effect
[15] = Cytotoxicity against HMEC cells assessed as residual cell viability at 1 uM incubated for 72 hrs by MTT assay relative to control; format: toxicity, cell-based; conditions: human, read-out: Activity

Sequence of Histone-lysine N-methyltransferase, H3 lysine-79 specific (Homo sapiens) (Q8TEK3 whole entry, looked up): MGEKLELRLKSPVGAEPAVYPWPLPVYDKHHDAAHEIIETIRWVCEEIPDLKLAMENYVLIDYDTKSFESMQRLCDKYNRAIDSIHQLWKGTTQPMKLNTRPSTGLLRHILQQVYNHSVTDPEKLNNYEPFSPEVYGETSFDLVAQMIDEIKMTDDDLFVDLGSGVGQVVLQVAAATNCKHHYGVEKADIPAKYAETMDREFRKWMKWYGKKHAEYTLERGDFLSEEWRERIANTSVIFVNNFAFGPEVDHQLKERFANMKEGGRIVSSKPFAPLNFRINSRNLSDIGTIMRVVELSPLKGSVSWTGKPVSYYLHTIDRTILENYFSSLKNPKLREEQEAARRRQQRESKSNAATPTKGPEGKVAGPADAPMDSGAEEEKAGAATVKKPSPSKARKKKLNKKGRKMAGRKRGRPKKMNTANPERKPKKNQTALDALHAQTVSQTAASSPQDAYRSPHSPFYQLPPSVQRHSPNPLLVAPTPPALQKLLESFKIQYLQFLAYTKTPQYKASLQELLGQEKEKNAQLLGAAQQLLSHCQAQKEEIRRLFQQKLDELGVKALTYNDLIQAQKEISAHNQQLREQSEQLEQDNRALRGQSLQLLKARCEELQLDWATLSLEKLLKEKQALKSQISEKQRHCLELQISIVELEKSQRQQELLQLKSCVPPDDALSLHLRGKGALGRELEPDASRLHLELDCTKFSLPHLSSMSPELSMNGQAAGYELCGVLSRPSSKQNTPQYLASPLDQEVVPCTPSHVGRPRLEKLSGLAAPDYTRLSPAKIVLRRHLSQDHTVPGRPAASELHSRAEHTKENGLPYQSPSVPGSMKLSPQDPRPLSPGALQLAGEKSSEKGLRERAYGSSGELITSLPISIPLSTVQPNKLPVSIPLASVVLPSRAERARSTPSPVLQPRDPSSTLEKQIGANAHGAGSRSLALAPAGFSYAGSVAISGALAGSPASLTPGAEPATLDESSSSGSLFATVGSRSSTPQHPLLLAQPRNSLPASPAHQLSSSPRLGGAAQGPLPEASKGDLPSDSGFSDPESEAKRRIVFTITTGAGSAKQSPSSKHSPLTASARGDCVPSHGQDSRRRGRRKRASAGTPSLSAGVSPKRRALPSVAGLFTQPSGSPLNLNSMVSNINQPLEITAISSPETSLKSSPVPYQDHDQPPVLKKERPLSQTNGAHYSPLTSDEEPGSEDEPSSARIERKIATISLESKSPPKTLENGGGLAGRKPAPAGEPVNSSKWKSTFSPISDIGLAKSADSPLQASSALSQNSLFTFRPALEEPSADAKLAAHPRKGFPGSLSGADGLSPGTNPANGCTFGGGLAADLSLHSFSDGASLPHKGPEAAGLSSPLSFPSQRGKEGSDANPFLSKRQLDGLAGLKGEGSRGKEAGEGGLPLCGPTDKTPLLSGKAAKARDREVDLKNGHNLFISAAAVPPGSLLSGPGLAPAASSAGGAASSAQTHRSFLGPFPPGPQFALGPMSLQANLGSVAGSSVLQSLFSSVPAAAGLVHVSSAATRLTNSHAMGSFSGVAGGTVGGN
Sequence of Histone-lysine N-methyltransferase EZH2 (Homo sapiens) (Q15910 whole entry, looked up): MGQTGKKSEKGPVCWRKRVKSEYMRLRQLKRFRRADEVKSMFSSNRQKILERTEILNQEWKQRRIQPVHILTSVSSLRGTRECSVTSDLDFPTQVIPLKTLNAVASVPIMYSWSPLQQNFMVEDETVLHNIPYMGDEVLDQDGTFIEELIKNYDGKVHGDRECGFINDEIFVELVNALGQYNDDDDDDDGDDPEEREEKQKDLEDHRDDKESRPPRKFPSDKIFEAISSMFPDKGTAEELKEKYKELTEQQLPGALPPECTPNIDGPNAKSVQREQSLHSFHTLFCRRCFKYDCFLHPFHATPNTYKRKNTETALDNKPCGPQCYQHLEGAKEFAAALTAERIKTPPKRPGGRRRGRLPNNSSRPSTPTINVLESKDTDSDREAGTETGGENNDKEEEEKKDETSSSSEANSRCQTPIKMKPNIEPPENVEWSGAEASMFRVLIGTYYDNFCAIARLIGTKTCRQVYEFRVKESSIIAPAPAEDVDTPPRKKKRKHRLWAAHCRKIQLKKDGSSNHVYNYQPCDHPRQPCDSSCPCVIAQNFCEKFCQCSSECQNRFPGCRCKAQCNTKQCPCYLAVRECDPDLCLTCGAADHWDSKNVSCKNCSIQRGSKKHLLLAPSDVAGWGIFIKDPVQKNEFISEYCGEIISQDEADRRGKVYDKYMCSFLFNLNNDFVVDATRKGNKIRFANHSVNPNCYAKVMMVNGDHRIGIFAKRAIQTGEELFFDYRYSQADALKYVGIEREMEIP

SMILES | Kd (LSD1/CoREST complex [1]) [nM] | Ki [3] [nM] | further results
COc1cc2nc(NCCCN(C)C)nc(NC3CCN(Cc4cccc5ccccc45)CC3)c2cc1OC | 84 | 3100 | Ki (LSD1/CoREST complex [2]): 212 nM
COc1cc2nc(NCCCCN(C)C)nc(NC3CCN(Cc4ccccc4)CC3)c2cc1OC | 112 | 4240 | –
CCN(CC)CCCNc1nc(NC2CCN(Cc3ccccc3)CC2)c2cc(OC)c(OC)cc2n1 | 86 | 3940 | Ki (LSD1/CoREST complex [2]): 175 nM
COc1cc2nc(NCCCCCN(C)C)nc(NC3CCN(Cc4ccccc4)CC3)c2cc1OC | 127 | 2790 | –
COc1cc2nc(NCCCN3CCN(C)CC3)nc(NC3CCN(Cc4ccccc4)CC3)c2cc1OC | 191 | 13300 | –
COc1cc2nc(NCCCN(C)C)nc(NCC3CCN(Cc4ccccc4)CC3)c2cc1OC | 115 | 22800 | –
COc1cc2nc(NCCCN(C)C)nc(NCCNc3cccc4ccccc34)c2cc1OC | 230 | 41500 | –
COc1cc2nc(NCCCN(C)C)nc(NC3CCN(C(=O)c4ccccc4)CC3)c2cc1OC | 975 | 32900 | –
COc1cc2nc(NCCCN(C)C)nc(NCCCNc3ccccc3)c2cc1OC | 228 | 48300 | –
COc1cc2nc(NCCCN(C)Cc3ccccc3)nc(NC3CCN(Cc4ccccc4)CC3)c2cc1OC | 162 | 9010 | –
COc1cc2c(NCCNc3cccc4ccccc34)nc(NCCCN(C)C)nc2cc1OCc1ccccc1 | 127 | 20200 | –
COc1cc2nc(NCCCN(C)C)nc(NC3CCNCC3)c2cc1OC | 1560 | 4830 | –
COc1cc2nc(NCCCN(C)C)nc(NC3CCN(CCc4ccccc4)CC3)c2cc1OC | 147 | 3130 | –
COc1cc2nc(NCCCN(C)C)nc(NC3CCN(C(=O)OC(C)(C)C)CC3)c2cc1OC | 82 | 46900 | Ki (LSD1/CoREST complex [2]): 205 nM; IC50 (THP-1 [4]): 870 nM; IC50 (THP-1 [5]): 710 nM; IC50 (THP-1 [6]): 550 nM
Nc1ncnc2c1ncn2[C@@H]1O[C@H](CSCC[C@H](N)C(=O)O)[C@@H](O)[C@H]1O | – | – | inhibition [7]: 100%; inhibition [8]: 84.2%
COc1cc2nc(NCCCN(C)C)nc(NC3CCN(Cc4ccccc4)C3)c2cc1OC (configuration not stated) | 251 | 8030 | –
COc1cc2nc(NCCCN(C)C)nc(N(C)C3CCN(Cc4ccccc4)CC3)c2cc1OC | 356 | > 100000 | Ki (LSD1/CoREST complex [2]): 569 nM; IC50 (THP-1 [4]): 670 nM; IC50 (THP-1 [5]): 430 nM; IC50 (THP-1 [6]): 300 nM; IC50 (MDA-MB-231): 2380 nM
COc1cc2nc(NCCCN(C)C)nc(NC3CCN(C)CC3)c2cc1OC | 1490 | 4170 | –
COc1cc2nc(NCCCN(C)C)nc(OC3CCN(Cc4ccccc4)CC3)c2cc1OC | 2850 | > 100000 | –
COc1cc2nc(NCCCN(C)C)nc(NC3CCN(Cc4ccc(-c5ccccc5)cc4)CC3)c2cc1OC | 81 | 1180 | Ki (LSD1/CoREST complex [2]): 146 nM; IC50 (THP-1 [4]): 170 nM; IC50 (THP-1 [5]): 120 nM; IC50 (THP-1 [6]): 87 nM; viability at 72 h, 1 µM [9]: 79.1%; inhibition (MV4-11 [10]): Active; inhibition [11]: Active; inhibition [12]: Active; Activity (MV4-11 [13]): Active; Activity (MV4-11 [14]): Dde; IC50 (MDA-MB-231): 290 nM; viability at 72 h, 1 µM [15]: 88.1%
COc1cc2nc(NCCCN3CCOCC3)nc(NC3CCN(Cc4ccccc4)CC3)c2cc1OC | 369 | 22600 | –
COc1cc2nc(N(C)CCCN(C)C)nc(NC3CCN(Cc4ccccc4)CC3)c2cc1OC | 1300 | 5820 | –
COc1cc2nc(NCCCN3CCCC3)nc(NC3CCN(Cc4ccccc4)CC3)c2cc1OC | 82 | 4010 | Ki (LSD1/CoREST complex [2]): 183 nM
COc1cc2nc(NCCN(C)C)nc(NC3CCN(Cc4ccccc4)CC3)c2cc1OC | 237 | 5260 | –
COc1cc2nc(NC3CCN(C)CC3)nc(NC3CCN(Cc4ccccc4)CC3)c2cc1OC | 82 | 6330 | –
COc1cc2nc(NCCCN3CCCCC3)nc(NC3CCN(Cc4ccccc4)CC3)c2cc1OC | 68 | 3260 | Ki (LSD1/CoREST complex [2]): 170 nM
